According to paper PMC4102551, “Screening and Characterisation of Antimicrobial Properties of Semisynthetic Betulin Derivatives” (PLoS ONE, 2014):
Several values for one entry are separate records, joined by “and”; a condition that tells them apart may be missing. Equal values may be shown once. Read-outs that look alike come from different tables or passages of the source.

Assays:
[1] = system: E. aerogenes ATCC 13048; experiment: Broth microdilution assay, E. aerogenes; type: cell-based, Enterobacter aerogenes; conditions: for inhibition at 50 µM: Klebsiella aerogenes, ATCC13048, 24 h, read-out: Inhibitory effect (%) E. aerogenes ATCC 13048
Experimental: (§1) Clinically used antimicrobial agents were selected based on international guidelines for antimicrobial testing and were utilised as reference compounds in the antimicrobial assays. The compounds were purchased from Sigma, Fluka and ICN Biomedicals. Stock solutions of the reference compounds were prepared either in double distilled sterile MilliQ water or in DMSO. Water solutions were sterilised through a 0.22 µm filter (VWR International). […] During the primary screening, these reference compounds were used as positive controls at the determined MIC on every plate.
(§2) Gram-negative strains Escherichia coli (ATCC 25922), Enterobacter aerogenes (ATCC 13048) and Pseudomonas aeruginosa (ATCC 27853), Gram-positive strains Staphylococcus aureus (ATCC 25923) and Enterococcus faecalis (ATCC 29212), and fungal strain Candida albicans (ATCC 90028) were obtained from Microbiologics Inc., and used for the antimicrobial screening. Strains were selected according to the guidelines set for clinical laboratories by Clinical and Laboratory Standards Institute [CLSI, formerly National Committee on Clinical Laboratory Standards [22]] and the European Committee on Antimicrobial Susceptibility Testing (EUCAST). Bacterial strains were grown on Mueller Hinton II Agar (MHA) (BBL, BD) and Mueller Hinton II broth (MHB) (BBL, BD), whereas Candida was initiated on Sabouraud Dextrose Agar (SDA) (Difco, BD) plates. Media were prepared into MilliQ water according to manufacturer’s instruction and autoclaved at 121°C for 15 min. Bacteria were plated on MHA plates and incubated at 37°C for 16–18 h. Bacterial suspension for the assays was prepared by subculturing the bacteria into MHB and by incubating at 37°C for 16–20 h at 110 rpm prior to the assay. Candida strain was grown on SDA plates at 27°C for 16–18 h and suspended into sterile 0.9% saline for the assay.
(§3) Antimicrobial screening assays were performed by broth microdilution method following the guidelines of CLSI and EUCAST. Bacterial suspensions were prepared as mentioned earlier and diluted with MHB to obtain a final inoculum of 5×10^5 colony-forming units (cfu)/mL in the assay for all the bacteria (based on OD620 values previously calibrated against plate counts). Candida suspension was prepared into sterile 0.9% saline solution as stated earlier. […] Assays were carried out in clear 96-well microtitre plates and initiated by dispensing an equal volume of microbial suspension and sample solution diluted into the assay medium into the wells. The plates were incubated for 24 h at 37°C (for Candida the incubation was at 35°C for 48 h) with agitation. Absorbance was measured at 620 nm with Victor plate reader (Wallac 1420, Perkin Elmer) at 0, 4 and 24 h with the bacteria, and at 0, 24 and 48 h with Candida. The antimicrobial activity of the samples was calculated from the absorbance values by comparing to the controls, and expressed as a percentage inhibition of growth. All the betulin derivatives were first assayed at the single concentration of 50 µM (two separate experiments, each with three replicates). […] The MIC90 value was expressed as the lowest concentration of compound that inhibited the microbial growth by >90%. The MIC90 results are means of three replicates from two separate experiments.

[2] = system: E. coli ATCC 25922; experiment: Broth microdilution assay, E. coli; type: cell-based, Escherichia coli
Experimental: as §1, §2, §3

[3] = system: E. faecalis ATCC 29212; experiment: Broth microdilution assay, E. faecalis; type: cell-based, Enterococcus faecalis; conditions: for inhibition at 50 µM: Enterococcus faecalis, ATCC29212, 24 h
Experimental: as §1, §2, §3

[4] = system: P. aeruginosa ATCC 27853; experiment: Broth microdilution assay, P. aeruginosa; type: cell-based, Pseudomonas aeruginosa
Experimental: as §1, §2, §3

[5] = system: S. aureus ATCC 25923; experiment: Broth microdilution assay, S. aureus; type: cell-based, Staphylococcus aureus; conditions: for inhibition at 50 µM: Staphylococcus aureus, ATCC25923, 24 h
Experimental: as §1, §2, §3

[6] = system: C. albicans ATCC 90028; experiment: Broth microdilution assay, C. albicans; type: cell-based, Candida albicans
Experimental: as §1, §2, §3

[7] = in vitro; type: cell-based, human; conditions: human
Experimental: (§4) Huh-7 cells (derived from human hepatocellular carcinoma) were obtained as a gift from Prof. Ralf Bartenschlager (University of Heidelberg, Germany) and used for assessing the cytotoxicity against mammalian cells. HL cells (a heteroploid cell line used for propagating respiratory viruses) were used as a host cell line in the host-pathogen co-culture assay. […] Both cell lines were cultured at 37°C, 5% CO2 and 95% humidity.
(§5) The effect of the betulin derivatives on metabolic activity of Huh-7 cells was evaluated by measuring the intracellular ATP content of the cells after 24 h exposure to the compounds. In brief, cells were seeded at 20000 cells/well on white-walled microplates (PerkinElmer) and incubated at 37°C, 5% CO2 and 95% humidity. After culturing the cells overnight, the medium was replaced with the assay media (5% FBS) containing the sample and the cells were incubated for 24 h. Polymyxin B sulphate (15000 IU/mL) was used as a positive control. Following the incubation period, Promega’s CellTiter-Glo Cell Viability Assay was used to determine the intracellular ATP levels according to the manufacturer’s instructions. Cells were washed with 100 µL 6.7 mM PBS, pH 7.4 and 50 µL of fresh assay media and 50 µL of the CellTiter-Glo reagent were added into the wells. After 2 min shaking, followed by 10 min incubation at RT, luminometric signal was measured using Varioskan Flash plate reader (Thermo Fisher Scientific).

[8] = system: Huh-7 cells; experiment: cells; type: cell-based, human; conditions: for Cytotoxicity (%) Huh-7 cells: 50 µM
Experimental: as §4, §5

[9] = system: S. aureus and E. faecalis; parameters: method as in PMID 18835348; conditions: ref 36; cited from earlier work
[10] = 50 µM, 24 h, inhibition of growth, mean ± SD
[11] = Escherichia coli, ATCC25922, 24 h; read-out: Inhibitory effect (%) E. coli ATCC 25922
[12] = 50 µM, 24 h, inhibition of growth, mean ± SD, read-out: Inhibitory effect (%) E. faecalis ATCC 29212
[13] = Pseudomonas aeruginosa, ATCC27853, 24 h; read-out: Inhibitory effect (%) P. aeruginosa ATCC 27853
[14] = 50 µM, 24 h, inhibition of growth, mean ± SD, read-out: Inhibitory effect (%) S. aureus ATCC 25923
[15] = Candida albicans, ATCC90028, 48 h; read-out: Inhibitory effect (%) C. albicans ATCC 90028
[16] = 50 µM, 24 h exposure, ATP content, 5% FBS, read-out: Cytotoxicity (%) Huh-7 cells
[17] = 24 h exposure, ATP content, 5% FBS
[18] = 50 µM, 48 h at 35°C, inhibition of growth, mean ± SD

Row | Compound | inhibition at 50 µM [1, 10] [%] | inhibition at 50 µM [2, 11] [%] | Inhibitory effect (%) E. faecalis ATCC 29212 [3, 10] | inhibition at 50 µM [3, 12] [%] | inhibition at 50 µM [4, 13] [%] | inhibition at 50 µM [5, 14] [%] | inhibition at 50 µM [6, 15] [%] | cytotoxicity at 24 h, 50 µM ([7]; Cytotoxicity (%) Huh-7 cells) [%] | other results
1 | C=C(C)[C@@H]1CC[C@]2(COC(=O)COc3cc(C(C)C)ccc3C)CC[C@]3(C)[C@H](CC[C@@H]4[C@@]5(C)CC[C@H](O)C(C)(C)[C@@H]5CC[C@]43C)[C@@H]12 [Compound 4, betulinyl 28-carboxymethoxycarvacrolate] | 9.9 ± 3.3 | -1.2 | 72% and 72.3±4.0% | > 70 | 3 ± 3 | -17.2 | 31.4 ± 9.1 | -4.6 | 
2 | C=C(C)C1CCC2(C=NO)CCC3(C)C(CCC4C5(C)CCC(O)C(C)(C)C5CCC43C)C12 (stereo not drawn) [Compound 31, betulin-28-oxime] | 14.6 ± 0.9 | 1.9 ± 4 |  | 41 ± 3.4 | 5.4 ± 2.2 | 6.4 ± 3.4 | -73.5 | 61 | IC50 at 24 h [7]: 25 µM; inhibition at 100 µM ([8]; Homo sapiens, Huh-7, 100 µM, 24 h, read-out: Inhibition in ATP assay, Huh-7 cells): 60%; Cytotoxicity (%) Huh-7 cells ([8]; human, 24 h): 61.5±2.0%
3 | CC(=O)OCC12CCC3(C(C)C)C1=C1C(CC4C5(C)CCC(OC(C)=O)C(C)(C)C5CCC4(C)C1(C)CC2)n1c(=O)n(-c2cccc([N+](=O)[O-])c2)c(=O)n13 (stereo not drawn) [Compound 38] | 19.3 ± 3 | 8.8 ± 2.6 | 74% and 73.9±1.4% | > 70 | 7.6 ± 1.4 | 6.7 ± 1.5 | -13.8 |  | cytotoxicity at 24 h, 50 µM [7, 16]: 8.3 ± 3.9%
4 | CC(C)[C@@H]1CC[C@]2(C(=O)O)CC[C@]3(C)[C@H](CC[C@@H]4[C@@]5(C)CCC(=O)C(C)(C)[C@@H]5CC[C@]43C)[C@@H]12 [Compound 24, dihydrobetulonic acid] | 16.8 ± 5.4 | 6.2 ± 4.5 | 56.6±2.0% | 57 | 4.9 ± 0.5 | 15.1 ± 3.7 | 54.9 ± 8.3 | 13 ± 10.3 | 
5 | C=C(C)[C@@H]1CC[C@]2(C(=O)Oc3ccc(C=O)cc3OC)CC[C@]3(C)[C@H](CC[C@@H]4[C@@]5(C)CCC(=O)C(C)(C)C5CC[C@]43C)[C@@H]12 (stereo partly drawn) [Compound 26, vanillinyl betulonate] |  |  | 58.7±0.1% |  |  |  |  | -10.1 ± 2.2 | inhibition at 50 µM [1]: 7.5 ± 0.6%; inhibition at 50 µM ([2]; Escherichia coli, ATCC25922, 24 h, read-out: Inhibitory effect (%) E. coli ATCC 25922): 4.1 ± 0.4%; inhibition at 50 µM ([3]; read-out: Inhibitory effect (%) E. faecalis ATCC 29212, 50 µM, 24 h, inhibition of growth, mean ± SD): 59%; inhibition at 50 µM ([4]; Pseudomonas aeruginosa, ATCC27853, 24 h, read-out: Inhibitory effect (%) P. aeruginosa ATCC 27853): 6.6 ± 1%; inhibition at 50 µM ([5]; read-out: Inhibitory effect (%) S. aureus ATCC 25923, 50 µM, 24 h, inhibition of growth, mean ± SD): 7.3 ± 5.8%; inhibition at 50 µM ([6]; Candida albicans, ATCC90028, 48 h, read-out: Inhibitory effect (%) C. albicans ATCC 90028): -65.9 ± 15%
6 | CCn1c(=O)n2n(c1=O)C1(C(C)C)CCC3(COC(C)=O)CCC4(C)C(=C31)C2CC1C2(C)CCC(OC(C)=O)C(C)(C)C2CCC14C (stereo not drawn) [Compound 43] | 18.5 ± 2.2 | -3.7 |  | 57.1 ± 4.4 | 1.7 ± 1.7 | 2.9 ± 0.7 | -9.7 |  | cytotoxicity at 24 h, 50 µM [7, 16]: 85%; IC50 at 24 h ([7]; 24 h exposure, ATP assay, 5% FBS, read-out: IC50 cytotoxicity Huh-7 cells): 16 µM; Cytotoxicity (%) Huh-7 cells [8, 17]: 86.0±2.0%; Effect on Huh-7 cell monolayer in ATP assay ([8]; 100 µM, 24 h): completely destroyed the cell monolayer
7 | CC(=O)OCC12CCC3(C(C)C)C1=C1C(CC4C5(C)CCC(OC(C)=O)C(C)(C)C5CCC4(C)C1(C)CC2)n1c(=O)n(-c2ccc4c(c2)OCO4)c(=O)n13 (stereo not drawn) [Compound 35] | 14.2 ± 1.6 | 3.4 ± 3.1 | 70.0±0.9% | > 70 | 5.5 ± 1 | 5.9 ± 1.2 | 4.4 ± 12.9 |  | cytotoxicity at 24 h, 50 µM [7, 16]: -0.1%
8 | C=C(C)[C@@H]1CC[C@]2(C=O)CC[C@]3(C)C(CCC4[C@@]5(C)CC[C@H](O)C(C)(C)C5CC[C@]43C)C12 (stereo partly drawn) [Compound 18, betulinic aldehyde] | 13.5 ± 2.6 | 2.7 ± 2.4 |  | 39.6 ± 8 | 3.9 ± 0.6 | -35.5 | 6.9 ± 8.1 | 61 | IC50 at 24 h [7]: 47 µM; Cytotoxicity (%) Huh-7 cells ([8]; human, 24 h): 61.3±9.5%
9 | C[C@H]1[C@H](C)CC[C@]2(C(=O)O)CC[C@]3(C)C(=CC[C@@H]4[C@@]5(C)CC[C@H](O)C(C)(C)[C@@H]5CC[C@]43C)[C@H]12 [UA, ursolic acid] |  |  |  |  |  |  |  |  | MIC against S. aureus and E. faecalis [9]: 4 to 8 mg/L
10 | CC(=O)OCC12CCC3(C(C)C)C1=C1C(CC4C5(C)CCC(OC(C)=O)C(C)(C)C5CCC4(C)C1(C)CC2)n1c(=O)n(-c2ccccc2)c(=O)n13 (stereo not drawn) [Compound 41] |  |  | 52.4±7.2% |  |  |  |  |  | Inhibitory effect (%) E. aerogenes ATCC 13048 [1, 10]: 18.6±5.6%; Inhibitory effect (%) E. coli ATCC 25922 [2, 10]: 7.1±1.0%; Inhibitory effect (%) P. aeruginosa ATCC 27853 [4, 10]: 1.3±0.4%; Inhibitory effect (%) S. aureus ATCC 25923 [5, 10]: 12.7±1.6%; Inhibitory effect (%) C. albicans ATCC 90028 [6, 18]: 15.0±14.3%; Cytotoxicity (%) Huh-7 cells [8, 17]: 1.3±4.4%
11 | CC(C)C12CCC3(COC(=O)c4ccccc4)CCC4(C)C(=C31)C(CC1C3(C)CCC(OC(=O)c5ccccc5)C(C)(C)C3CCC14C)n1c(=O)n(-c3ccccc3)c(=O)n12 (stereo not drawn) [Compound 50] |  |  | 38.8±5.8% |  |  |  |  |  | Inhibitory effect (%) E. aerogenes ATCC 13048 [1, 10]: 9.6±4.2%; Inhibitory effect (%) E. coli ATCC 25922 [2, 10]: -2.8±5.2%; Inhibitory effect (%) P. aeruginosa ATCC 27853 [4, 10]: 3.2±0.3%; Inhibitory effect (%) S. aureus ATCC 25923 [5, 10]: 10.1±1.0%; Inhibitory effect (%) C. albicans ATCC 90028 [6, 18]: -35.2±31.4%; Cytotoxicity (%) Huh-7 cells [8, 17]: -6.2±3.7%
